# Source: paper PMC7211198, “Phase 1b study of a small molecule antagonist of human chemokine (C-C motif) receptor 2 (PF-04136309) in combination with nab-paclitaxel/gemcitabine in first-line treatment of metastatic pancreatic ductal adenocarcinoma” (Investigational New Drugs, 2019)
# Values joined by “and” are separate entries in the source; they are usually repeats but may differ in a detail not shown here. Equal entries are not always repeated.
# Assays:
# [1] = system: CD14 + CCR2+ inflammatory monocytes; test: CD14+CCR2+ inflammatory monocytes in peripheral blood and bone marrow by flow cytometry; assay type: in vivo, human
# Protocol: (§1) The levels of CD14 + CCR2+ IM or other immune-cell phenotypes in the samples from the core needle biopsy, fine-needle aspirate from primary tumor tissue, bone marrow, and peripheral blood were assessed by flow cytometry. CCL2 levels were determined using whole blood plasma by immunoassay using a luminex-based method. The ex vivo inhibition of CCL2-induced pERK by PF-04136309 was measured in whole blood using flow cytometry. Percentages of CD4+, CD8+, and CD4 + FoxP3+ T cells within CD45+ populations were evaluated by flow cytometry in paired fresh biopsy samples from three patients. Two patients provided both baseline and on-study biopsies, and one patient provided a baseline biopsy only.
# [2] = system: metastatic pancreatic ductal adenocarcinoma; test: Antitumor response per RECIST version 1.1, mITT population; assay type: in vivo, human; conditions: 500 mg group; 2 of 17 with progression events, rest censored; not an appropriate estimate
# [3] = system: metastatic pancreatic ductal adenocarcinoma; test: as above; assay type: in vivo, human; conditions: for Best overall response: Complete response / Best overall response: Early death / Best overall response: Indeterminate / Best overall response: Objective progression / Best overall response: Partial response / Best overall response: Stable/no response / Best overall response: Unconfirmed complete response / Best overall response: Unconfirmed partial response / Objective response rate (95% exact CI): mITT; for ORR: 95% exact CI
# Protocol: The modified intent-to-treat (mITT) population was defined as all patients who had received at least one dose of study medication and had measurable disease at baseline assessment (within 28 days prior to study entry). The mITT population was assessed for antitumor response.
# Objective response rate (ORR) was defined as the proportion of patients with confirmed complete response (CR) or confirmed PR according to Response Evaluation Criteria In Solid Tumors, version 1.1, relative to all enrolled patients who had baseline measurable disease. Confirmed responses were those that persisted on repeat imaging ≥4 weeks after initial documentation of response. Indeterminate responses were those with no documented progression and absence of proper assessment of target lesions.
# Patients without on-study radiographic tumor re-evaluation and those who died, progressed, or dropped out for any reason prior to reaching a CR or PR were counted as nonresponders in the assessment of ORR. The ORR, CR, and PR point estimates for each treatment arm were provided along with the corresponding two-sided 95% confidence intervals (CIs) using an exact method.
# Imaging for tumor assessments included computed tomography (CT) or MRI scans of the chest, abdomen, and pelvis; brain CT or MRI scan for patients with known or suspected brain metastases; and bone scan and/or bone X-rays for patients with known or suspected bone metastases.
# CCR2 = conditions: human monocytes and human whole blood; background statement, no reference given; cited from earlier work
# [4] = set-up: method as in PMID 27055731; conditions: cited from earlier work
# CCL2 = test: Plasma CCL2 levels by luminex-based immunoassay; assay type: in vivo, human; conditions: most patients, 500 mg (n = 17) and 750 mg (n = 4) BID, over the course of study
# Protocol: as §1
# [5] = system: T cells and CCR2+ TAM in tumor biopsy; test: Immune cells in tumor biopsy samples by flow cytometry; assay type: in vivo, human
# Protocol: as §1
# [6] = Multiple-dose plasma pharmacokinetics, cycle 1 day 15; assay type: in vivo, human
# Protocol: The hypothetical mechanisms of action of PF-04136309 were explored by analysis of biopsies, bone marrow aspirates, and peripheral blood (pre- and post-treatment during the study). Serial blood samples were collected from patients to determine the multiple-dose PK of PF-04136309 given in combination with nab-paclitaxel/gemcitabine.
# Blood samples sufficient to provide ≥1 mL of plasma were collected for measurement of PF-04136309 concentrations. Plasma PF-04136309 concentrations were quantified with a validated liquid chromatography–mass spectrometry method. PF-04136309 concentration–time data from cycle 1 day 15 were analyzed using noncompartmental methods to estimate PK parameters.
# CCL2-induced pERK = test: Ex vivo CCL2-induced pERK in whole blood by flow cytometry (target engagement); set-up: species or system human; conditions: most patients, 500 mg (n = 17) and 750 mg (n = 4) BID, over the course of study
# Text: The primary objectives were to evaluate the safety and tolerability of PF-04136309 in combination with nab-paclitaxel/gemcitabine, to characterize the dose-limiting toxicities (DLTs), and determine the RP2D of PF-04136309. Secondary objectives included assessment of PF-04136309 PK analysis and ex vivo inhibition of CCL2-induced extracellular signal-regulated kinase phosphorylation (pERK) as a measure of target engagement. Exploratory objectives included evaluation of CCL2 levels in peripheral blood and the prevalence of IM, TAM, and other relevant immune cells in the peripheral blood, bone marrow, and core needle biopsy of metastases or fine-needle aspirate primary tumor tissue.
# as §1
# [7] = 500-mg BID (n = 13), steady state
# [8] = 500-mg BID group (n = 13), steady state
# [9] = 750-mg BID group (n = 2), individual values
structure (smiles),measurement,setting,value
O=C(NCC(=O)N1CC[C@H](N[C@H]2CC[C@@](O)(c3ccc(-c4ncccn4)cn3)CC2)C1)c1cccc(C(F)(F)F)c1 [PF-04136309],Accumulation of CCR2 + CD14+ monocytes in the bone marrow,"[1]; 500 mg BID, week 6 post dosing vs baseline",not observed
same,Change in absolute counts of CD14 + CCR2+ IM in peripheral blood,"[1]; nearly all patients, baseline to study day 2, sustained through day 15",drop
same,Median progression-free survival (mPFS),[2],5.3 months
same,Best overall response: Complete response,"[3]; 500 mg BID + nab-P/Gem, N = 17",0 n (%)
same,Best overall response: Early death,"[3]; 500 mg BID + nab-P/Gem, N = 17",1 (5.9) n (%)
same,Best overall response: Indeterminate,"[3]; 500 mg BID + nab-P/Gem, N = 17",5 (29.4) n (%)
same,Best overall response: Objective progression,"[3]; 500 mg BID + nab-P/Gem, N = 17",3 (17.6) n (%)
same,Best overall response: Partial response,"[3]; 500 mg BID + nab-P/Gem, N = 17",5 (29.4) n (%)
same,Best overall response: Stable/no response,"[3]; 500 mg BID + nab-P/Gem, N = 17",2 (11.8) n (%)
same,Best overall response: Unconfirmed complete response,"[3]; 500 mg BID + nab-P/Gem, N = 17",0 n (%)
same,Best overall response: Unconfirmed partial response,"[3]; 500 mg BID + nab-P/Gem, N = 17",1 (5.9) n (%)
same,Objective response rate (95% exact CI),"[3]; 500 mg BID + nab-P/Gem, N = 17",5 (29.4) (10.3–56.0) n (%)
same,ORR,"[3]; 500 mg BID group (n = 17), 10.3–56.0%",29.4%
same,Best overall response: Complete response,"[3]; 750 mg BID + nab-P/Gem, N = 4",0 n (%)
same,Best overall response: Early death,"[3]; 750 mg BID + nab-P/Gem, N = 4",0 n (%)
same,Best overall response: Indeterminate,"[3]; 750 mg BID + nab-P/Gem, N = 4",2 (50.0) n (%)
same,Best overall response: Objective progression,"[3]; 750 mg BID + nab-P/Gem, N = 4",0 n (%)
same,Best overall response: Partial response,"[3]; 750 mg BID + nab-P/Gem, N = 4",0 n (%)
same,Best overall response: Stable/no response,"[3]; 750 mg BID + nab-P/Gem, N = 4",1 (25.0) n (%)
same,Best overall response: Unconfirmed complete response,"[3]; 750 mg BID + nab-P/Gem, N = 4",0 n (%)
same,Best overall response: Unconfirmed partial response,"[3]; 750 mg BID + nab-P/Gem, N = 4",1 (25.0) n (%)
same,Objective response rate (95% exact CI),"[3]; 750 mg BID + nab-P/Gem, N = 4",0 (0.0–60.2) n (%)
same,ORR,"[3]; all 21 patients, 8.2–47.2%",23.8%
same,"Effect on CCR2-mediated signal transduction, chemotaxis, and CCL2 binding",CCR2,block
same,Proportion of patients achieving partial response vs that anticipated with FOLFIRINOX alone,"[4]; phase Ib, in combination with FOLFIRINOX",significantly increased
same,Pulmonary events reported,"[4]; single agent, non-oncology studies (N = 178) and 39 advanced PDAC patients with FOLFIRINOX",no pulmonary events
same,Safety and tolerability,"[4]; single oral dose up to 1000 mg, repeated oral up to 500 mg BID as single agent or with FOLFIRINOX",generally safe and well tolerated
same,Tolerability,"[4]; with FOLFIRINOX, borderline resectable and locally advanced pancreatic cancer",well-tolerated
same,Change in plasma CCL2 levels,CCL2,increase
same,Change in PD-1 + CD4+ and PD-1 + CD8+ cells in the tumor biopsy sample,"[5]; one patient, data not shown",increase
same,"CCR2+ TAM levels, change","[5]; two patients, 500-mg BID group, individual values, data not shown",~4% to 3%
same,Change in CD4+ and CD8+ cells within CD45+ populations in fresh biopsy tumor samples,"[5]; two patients, 500-mg BID group, baseline vs week 6",increase
same,Coefficient of variation of AUCtau,[6]; [7],30%
same,Coefficient of variation of Cmax,[6]; [7],44%
same,Coefficient of variation of Cmin,[6]; [7],57%
same,Mean AUCtau,[6]; [8],5873 ng·h/mL
same,Mean Cmax,[6]; [8],1276 ng/mL
same,Median Tmax,"[6]; 500-mg BID, oral, with nab-paclitaxel/gemcitabine",1.42 h
same,"AUCtau, observed values",[6]; [9],"10,600 ng·hr/mL and 15,700 ng·hr/mL"
same,"Cmax, observed values",[6]; [9],2950 ng/mL and 3390 ng/mL
same,Change in CCL2-induced pERK,CCL2-induced pERK,drop
